Experimental data from patent US11339161B2, “Triazolo pyridines as modulators of gamma-secretase” (Boehringer Ingelheim International GmbH, priority 2017, dated 2022).
Where two headings read alike, the source gives them in different places.

Target: T1, AURKA (Aurora A) (Homo sapiens, UniProt O14965)
T1 sequence (O14965 1-403): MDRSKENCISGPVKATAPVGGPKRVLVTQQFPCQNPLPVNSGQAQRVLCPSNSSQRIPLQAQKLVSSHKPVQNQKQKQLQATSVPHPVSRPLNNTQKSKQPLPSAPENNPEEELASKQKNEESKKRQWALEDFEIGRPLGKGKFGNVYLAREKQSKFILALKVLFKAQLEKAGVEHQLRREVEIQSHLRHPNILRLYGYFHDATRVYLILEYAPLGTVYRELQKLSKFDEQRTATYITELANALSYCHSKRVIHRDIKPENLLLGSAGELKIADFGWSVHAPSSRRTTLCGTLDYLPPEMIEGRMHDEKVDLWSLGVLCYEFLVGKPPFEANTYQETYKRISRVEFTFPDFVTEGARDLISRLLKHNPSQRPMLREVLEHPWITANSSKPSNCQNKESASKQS
Assay: Z'-LYTE SelectScreen biochemical kinase assay AURKA (Aurora A)
Description: Thermo Fisher Scientific SelectScreen™ Biochemical Kinase Profiling Service Z′-LYTE™ Screening Protocol and Assay Conditions Assay Theory
The […] biochemical assay employs a fluorescence-based, coupled-enzyme format and is based on the differential sensitivity of phosphorylated and non-phosphorylated peptides to proteolytic cleavage. The peptide substrate is labeled with two fluorophores—one at each end—that make up a FRET pair. In the primary reaction, the kinase transfers the gamma-phosphate of ATP to a single tyrosine, serine or threonine residue in a synthetic FRET-peptide. In the secondary reaction, a site-specific protease recognizes and cleaves non-phosphorylated FRET-peptides. Phosphorylation of FRET-peptides suppresses cleavage by the Development Reagent. Cleavage disrupts FRET between the donor (i.e., coumarin) and acceptor (i.e., fluorescein) fluorophores on the FRET-peptide, whereas uncleaved, phosphorylated FRET-peptides maintain FRET. A ratiometric method, which calculates the ratio (Emission Ratio=Coumarin emission (445 nm)/Fluorescein emission (520 nm)) of donor emission to acceptor emission after excitation of the donor fluorophore at 400 nm, is used to quantitate reaction progress, as shown in the equation below. A significant benefit of this ratiometric method for quantitating reaction progress is the elimination of well-to-well variations in FRET-peptide concentration and signal intensities. As a result, the assay yields very high Z′-factor values (>0.7) at a low percent phosphorylation. Both cleaved and uncleaved FRET-peptides contribute to the fluorescence signals and therefore to the Emission Ratio. The extent of phosphorylation of the FRET-peptide can be calculated from the Emission Ratio. The Emission Ratio will remain low if the FRET-peptide is phosphorylated (i.e., no kinase inhibition) and will be high if the FRET-peptide is non-phosphorylated (i.e., kinase inhibition).
The Test Compounds are screened in 1% DMSO (final) in the well. For 10 point titrations, 3-fold serial dilutions are conducted from the starting concentration of the customer's choosing.
All Peptide/Kinase Mixtures are diluted to a 2× working concentration in the appropriate Kinase Buffer (see section Kinase Specific Assay Conditions for a complete description).
All ATP Solutions are diluted to a 4× working concentration in Kinase Buffer (50 mM HEPES pH 7.5, 0.01% BRIJ-35, 10 mM MgCl2, 1 mM EGTA). ATP Km apparent is previously determined using a Z″-LYTE assay.
The Development Reagent is diluted in Development Buffer (see section Kinase-Specific Assay Conditions—Direct and Cascade for a complete description).
Bar-coded Corning, low volume NBS, black 384-well plate (Corning Cat. #4514) • 1. 100 nL—100× Test Compound in 100% DMSO • 2. 2.4 μL—Kinase buffer • 3. 5 μL—2× Peptide/Kinase Mixture • 4. 2.5 μL—4×ATP Solution • 5. 30—second plate shake • 6. 60—minute Kinase Reaction incubation at room temperature • 7. 5 μL—Development Reagent Solution • 8. 30—second plate shake • 9. 60—minute Development Reaction incubation at room temperature • 10. Read on fluorescence plate reader and analyze the data Z′-LYTE Assay Controls
SelectScreen Kinase Profiling Service uses XLfit from IDBS. The dose response curve is curve fit to model number 205 (sigmoidal dose-response model).
The 2×AURKA (Aurora A)/Ser/Thr 01 mixture is prepared in 50 mM HEPES pH 7.5, 0.01% BRIJ-35, 10 mM MgCl2, 1 mM EGTA. The final 10 μL Kinase Reaction consists of 0.91-8.56 ng AURKA (Aurora A) and 2 μM Ser/Thr 01 in 50 mM HEPES pH 7.5, 0.01% BRIJ-35, 10 mM MgCl2, 1 mM EGTA. After the 1 hour Kinase Reaction incubation, 5 μL of a 1:4096 dilution of Development Reagent A is added.

[1] = 10 μmolar compound concentration, ATP at Km app, read-out: AURKA (Aurora A) inhibition
[2] = read-out: % Inhibition mean AURKA (Aurora A)

Question: For `CCn1ncc2c1CCC(Nc1nc3c(-c4ccc(C)nc4)cccn3n1)C2` (stereo not drawn) [Example 67, (1-Ethyl-4,5,6,7-tetrahydro-1H-indazol-5-yl)-[8-(6-methyl-pyridin-3-yl)-[1,2,4]triazolo[1,5-a]pyridine-2-yl]-amine], which inhibition at 10 µM [1] is on record?
Answer: < 40%

Question: And the inhibition at 10 µM [2]?
Answer: 6%

Question: How did the inhibition at 10 µM [1] turn out when `Fc1cccc(-c2cccn3nc(Nc4ccc5[nH]cnc5c4)nc23)c1` [Cpd. 293 in WO09155551, reference compound] was run?
Answer: > 80%

Question: And the inhibition at 10 µM (read-out: % Inhibition mean)?
Answer: 89%

Question: How did the inhibition at 10 µM [1] turn out when `CCn1ncc2c1CCC(Nc1nc3c(-c4cncc(Cl)c4)cccn3n1)C2` (stereo not drawn) [Example 73, [8-(5-Chloro-pyridin-3-yl)-[1,2,4]triazolo[1,5-a]pyridine-2-yl]-(1-ethyl-4,5,6,7-tetrahydro-1H-indazol-5-yl)-amine] was run?
Answer: > 80%

Question: What about the inhibition at 10 µM [2] of the same molecule?
Answer: 85%

Question: How did the inhibition at 10 µM [1] turn out when `CCn1ncc2c1CCC(Nc1nc3c(-c4cccnc4)cccn3n1)C2` (stereo not drawn) [Example 63, (1-Ethyl-4,5,6,7-tetrahydro-1H-indazol-5-yl)-(8-pyridin-3-yl-[1,2,4]triazolo[1,5-a]pyridine-2-yl)-amine] was run?
Answer: < 40%

Question: And the inhibition at 10 µM [2]?
Answer: 29%

Question: For `CCn1ncc2c1CC[C@H](Nc1nc3c(-c4ccc(F)c(Cl)c4)cccn3n1)C2` [Example S-61, (S)-[8-(3-Chloro-4-fluoro-phenyl)-[1,2,4]triazolo[1,5-a]pyridine-2-yl]-(1-ethyl-4,5,6,7-tetrahydro-1H-indazol-5-yl)-amine], which inhibition at 10 µM [1] is on record?
Answer: < 40%

Question: And the inhibition at 10 µM [2]?
Answer: -21%

Question: Which inhibition at 10 µM [1] does the source give for `CCn1ncc2c1CCC(Nc1nc3c(-c4ccc(F)cc4C)cccn3n1)C2` (stereo not drawn) [Example 42, (1-Ethyl-4,5,6,7-tetrahydro-1H-indazol-5-yl)-[8-(4-fluoro-2-methyl-phenyl)-[1,2,4]triazolo[1,5-a]pyridine-2-yl]-amine] here?
Answer: < 40%

Question: And the inhibition at 10 µM [2]?
Answer: -2%

Question: With `CC1(C)C(=O)Nc2ccc(Nc3nc4c(-c5cccc(F)c5)cccn4n3)cc21` [Cpd. 263 in WO09155551, reference compound] as the molecule, how does the inhibition at 10 µM [1] read?
Answer: > 80%

Question: And the inhibition at 10 µM (read-out: % Inhibition mean)?
Answer: 99%

Question: For `CCn1ncc2c1CC[C@@H](Nc1nc3c(-c4ccc(F)cc4C)cccn3n1)C2` [Example R-42, (R)-(1-Ethyl-4,5,6,7-tetrahydro-1H-indazol-5-yl)-[8-(4-fluoro-2-methyl-phenyl)-[1,2,4]triazolo[1,5-a]pyridine-2-yl]-amine], which inhibition at 10 µM [1] is on record?
Answer: < 40%

Question: What about the inhibition at 10 µM [2] of the same molecule?
Answer: 3%

Question: For `CCn1ncc2c1CCC(Nc1nc3c(-c4cccnc4OC)cccn3n1)C2` (stereo not drawn) [Example 69, (1-Ethyl-4,5,6,7-tetrahydro-1H-indazol-5-yl)-[8-(2-methoxy-pyridin-3-yl)-[1,2,4]triazolo[1,5-a]pyridine-2-yl]-amine], which inhibition at 10 µM [1] is on record?
Answer: < 40%

Question: What about the inhibition at 10 µM [2] of the same molecule?
Answer: 25%
